Experimental data taken from US8759363B2, “Quinazoline-based T cell proliferation inhibitors” (Yissum Research Development Company of the Hebrew …, priority 2010, dated 2014).
Read-outs that look alike come from different tables or passages of the source.

What was measured:
[1] = test system: PBMC depleted of CD3+ cells; assay: Proliferation of PBMC depleted of CD3+ cells, BrdU; assay type: cell-based; settings: Homo sapiens, stimulated by ODN2006 or LPS, stated as similar to ~0.5 μM, read-out: IC50 for PBMCs depleted of CD3+ cells
Experimental: Blood samples were taken from healthy donors and loaded on a Ficoll density gradient to purify the PBMC population. T cells were purified by human anti-CD3 using an autoMACS instrument (Miltenyi Biotec, Bergisch-Gladbach, Germany), according to the manufacturer's instructions. The identity of T cells was confirmed by flow cytometry, as they stained positive for CD3. Cells were stimulated with ConA (10 μg/ml), ODN2006 (0.5 μg/ml; Enzo Life Sciences), or LPS (50 μg/ml; Sigma-Aldrich, Steinheim, Germany), for 72 h in the presence of the inhibitor, and their proliferation was measured in the BrdU incorporation assay as will be later described.
(§1) Proliferation was assessed by BrdU incorporation using a colorimetric ELISA kit (Roche, Germany). Subsequent to labeling with 10 μM BrdU, DNA was denatured and the cells were incubated with anti-BrdU-POD, prior to the addition of colorimetric substrate (TMB). The reaction product was quantified by measuring absorbance at 450 nm in an ELISA plate reader (ELx800 BIO-TEK Instruments Inc.).
PBMC consist of a mixture of mononucleated cells, mostly T cells. To identify the cell type that was inhibited by 2, we first purified T cells from PBMC with an autoMACS apparatus (Miltenyi Biotec), using anti-CD3 antibodies. We were now able to compare three cell populations: total PBMC, CD3+ cells purified from PBMC, and PBMC that had been depleted of CD3+ cells. […]

[2] = target: T1, ZAP-70 (Homo sapiens, UniProt P43403); assay: SLP-76 kinase assay with ZAP-70 immunoprecipitated from treated Jurkat cells; assay type: cell-based; settings: ZAP-70 from Jurkat cells treated 16 h, recombinant SLP-76 substrate, dose-dependent
T1 construct: We also immunoprecipitated the ZAP-70 kinase from the treated/untreated cells; endogenous in cells; host or cells: Jurkat
Experimental: ZAP-70 was immunoprecipitated as described above. The immune complexes were washed 2 times with lysis buffer and 2 times with kinase buffer (50 mM Tris pH 7.5, 100 mM NaCl and 10 mM MgCl2). The beads were resuspended in 30 μl of kinase buffer containing 3 μg of His-tagged, full-length human SLP-76 protein (kindly provided by Dr. Yablonski, Technion, Israel), and the kinase reactions were initiated by the addition of 10 μl kinase buffer containing 5 μM ATP. The reactions proceeded for 15 min at 30° C. and were stopped by the addition of 6 μL EDTA (100 mM) and sample buffer. The results were analyzed by western blot [Yablonski, 1998]
Jurkat cells were treated with 2 for 16 h, and SLP-76 phosphorylation was measured by immunoprecipitation of SLP-76 protein followed by western blotting with an antibody to the phosphorylated tyrosines of the protein (FIG. 6A). We also immunoprecipitated the ZAP-70 kinase from the treated/untreated cells, and tested its ability to phosphorylate recombinant SLP-76 protein as substrate (FIG. 6B). […] Presumably the remaining SLP-76 activity was sufficient to allow IL-2 secretion.

[3] = test system: NIH3T3; assay: NIH3T3 proliferation, BrdU uptake; assay type: cell-based; settings: Mus musculus
Experimental: (§2) Cells were depleted of fetal calf serum (FCS) for 12 hours. They were then stimulated to proliferate by addition of ConA (10 μg/ml) for PBMC from healthy individuals and for Jurkat cells, FCS (10%) for HEK293 and A375 cells, PDGF (30 ng/ml) for NIH 3T3 cells, and EGF (30 ng/ml) for MDA-MB-231, Cells (1×10^5) were cultured in 96-well plates for 3 days in the presence or absence of inhibitors at the concentrations specified in the text. Each condition was tested in duplicate wells.
as §1
(§3) To characterize the mode of action of 2 (S101) in more detail, we first examined whether 2 inhibits non-hematopoietic cell lines. We studied the effect of 2 on the growth of four cell lines: NIH 3T3 (mouse embryonic fibroblasts), A-431 (human vulval carcinoma cells), MDA-MB-468 (human breast carcinoma cells), and PANC-1 (human pancreatic carcinoma cells) (FIGS. 1A-B). We also tested the inhibitors on human keratinocytes. […]

[4] = test system: OT1 (resting) cells; assay: MLR with resting control cells, resting OT1 cells; assay type: cell-based, mouse; settings: 0.5 μM, 72 h MLR with IL-7; no inhibitor 2459
From the text: The aim of this test was to determine whether 2 affects only the proliferating cells or there is a general mechanism affecting all cell numbers. For this purpose we mixed 3 cell types: […]: BALB/c, 2C and OT1; […]: CB6F1, TEA and OT2. The OT1 and OT2 are splenocytes that were isolated from OT1 and OT2 mice (Jackson Laboratories, Bar Harbor, Me.),
Thus, the ability to monitor the fate of proliferation and resting cells by FACS was enabled due to the use of the MLR described above for CD4+ and CD8+ and the addition of OT2 and OT1 splenocytes, respectively.
Proliferating cells often secrete cytokines that induce survival of neighbouring cells; since the proliferation was expected to be inhibited we added 50 ng/ml of IL-7. This concentration is sufficient to keep the cells alive, but not to induce proliferation.
Irradiated Balb splenocytes were incubated for 72 h with 2C, and OT1 splenocytes in the presence of IL-7 W/O inhibitor.
The CD4+ and CD8+ were stimulated to proliferate, whereas in the absence of specific stimuli the OT1 and OT2 cell populations were resting, and theses cells were kept alive by the administration of IL-7. […] The number of 2C and OT1 cells that were treated with 0.5 μM 2 was 286 and 1148, respectively, while the number of 2C and OT1 cells that were treated with 0.5 μM 21 (control) was 4767 and 2468, respectively. This is depicted as a bar-graph in FIG. 8C.

[5] = test system: HEK293; assay: HEK293 proliferation, BrdU uptake; assay type: cell-based; settings: Homo sapiens
Experimental: as §2, §1, §3

T1 sequence (P43403 whole entry): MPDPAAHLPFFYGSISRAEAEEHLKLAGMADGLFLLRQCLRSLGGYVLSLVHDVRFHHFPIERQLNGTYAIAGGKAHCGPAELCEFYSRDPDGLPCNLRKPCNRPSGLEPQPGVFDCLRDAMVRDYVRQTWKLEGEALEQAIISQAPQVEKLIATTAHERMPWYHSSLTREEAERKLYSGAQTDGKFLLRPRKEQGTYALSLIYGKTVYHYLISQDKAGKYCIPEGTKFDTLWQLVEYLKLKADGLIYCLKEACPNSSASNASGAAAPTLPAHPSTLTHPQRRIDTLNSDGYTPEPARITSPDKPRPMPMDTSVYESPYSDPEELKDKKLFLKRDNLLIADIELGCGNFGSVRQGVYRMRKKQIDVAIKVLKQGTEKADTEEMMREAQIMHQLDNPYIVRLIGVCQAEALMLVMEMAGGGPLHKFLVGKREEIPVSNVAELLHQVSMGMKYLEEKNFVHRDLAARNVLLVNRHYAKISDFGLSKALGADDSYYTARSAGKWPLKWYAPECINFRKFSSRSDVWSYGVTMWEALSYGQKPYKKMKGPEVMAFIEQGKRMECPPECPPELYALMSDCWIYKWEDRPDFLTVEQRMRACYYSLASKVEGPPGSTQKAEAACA

How did the IC50 [1] turn out when `COc1cc(-c2nc(Nc3ccc(C)cc3)c3ccccc3n2)cc(OC)c1OC` [Compound 2, N-p-tolyl-2-(3,4,5-trimethoxyphenyl)quinazolin-4-amine] was run?
The IC50 was about 0.5 µM.

And the “activity of ZAP-70” value [2]?
The value was “inhibited”.

What about the IC50 ([3]; NIH3T3, PDGF (30 ng/ml) activated, read-out: IC50 of stimulated cells) of the same compound?
The IC50 was about 7 µM.

And the IC50 ([3]; NIH3T3, non-stimulated, read-out: IC50 of non-stimulated cells)?
Its IC50 is about 3 µM.

What about the “number of OT1 (resting) cells” value [4] of the same compound?
The value was 1148.

What about the IC50 ([5]; HEK293, non-stimulated, read-out: IC50 of non-stimulated cells) of the same compound?
Its IC50 is about 10 µM.

And the IC50 ([5]; HEK293, serum (FCS 10%) activated, read-out: IC50 of stimulated cells)?
Its IC50 is about 10 µM.
